From PMC2443290, “Genistein-Supplemented Diet Decreases Malaria Liver Infection in Mice and Constitutes a Potential Prophylactic Strategy” (PLoS ONE, 2008)
pIC50: −log10 of the molar value. Where “and” joins values, the source holds several entries; their conditions need not be identical. Equal entries are not always repeated. Where two headings read alike, the source gives them in different places.

How the values were obtained:
[1] = tested on: phospho c-met (Tyr1234/1235); assay: Sporozoite-induced MET phosphorylation in Huh7 cells, Western blot; assay type: cell-based, human; conditions: four hours after sporozoites
Method: Four hours later total protein extracts were analysed with anti-phospho c-met (Tyr1234/1235) and MET antibodies.
Protein concentrations were determined using the Bio-Rad Laboratories DC protein assay kit and equal amounts of protein extracts ([…]) were separated by 8% SDS-PAGE gels, transferred onto nitrocellulose membranes and processed for Western blotting. The antibody directed to phospho-MET was used at 1∶1000 dilution (#3126; Cell signalling technology, Inc.) and β-chain of human MET was detected with the antibody MET (C-12) at 0,5 μg/mL dilution (#sc-10; Santa Cruz Biotechnology, Inc.). After incubation with the primary antibodies the enhanced chemiluminescence detection system ECL and Kodak films (Amersham Pharmacia Biotech, Piscataway, NJ) were used to visualize proteins on the nitrocellulose blots.

P. yoelii = assay: IC50 of infection of Hepa1-6 cells by P. yoelii, 18S rRNA qRT-PCR; assay type: cell-based; conditions: Plasmodium yoelii, Hepa1-6, 24 h, P. yoelii infection of Hepa1-6 cells, read-out: IC50 (inhibition of infection)
[2] = tested on: P. berghei ANKA expressing GFP sporozoites; assay: FACS analysis of Huh7 cells infected with PbGFP sporozoites (invasion and GFP intensity); assay type: cell-based
Method: FACS analysis at 2, 6, 30 and 44 hours after sporozoite addition was performed to determine the percentage of parasite-containing cells and parasite-GFP intensity within infected cells. Cell samples for FACS analysis were processed as previously described.

P. berghei ANKA = assay: IC50 of infection of Huh7 cells by P. berghei ANKA, 18S rRNA qRT-PCR; assay type: cell-based; conditions: Plasmodium berghei
Method: (§1) This was performed in parallel to experiments where primaquine was tested in P. berghei infection of Huh7 cells. […] In addition to hepatoma cell lines primary mouse hepatocyte cultures were also used.
Black circles represent the mean of P. berghei ANKA18S rRNA expression in each condition (n = 3). […] Black circles represent the mean of P. berghei ANKA18S rRNA expression in each condition (n = 3).

P. berghei sporozoites = assay type: cell-based; conditions: data not shown
Method: as §1

[3] = adults; daily ingestion of up to 54 mg; cited from earlier work
[4] = tested on: P. berghei ANKA sporozoites; assay: Pre-treatment of sporozoites with genistein, then infection of HepG2 cells; assay type: cell-based; conditions: sporozoites incubated with 100 μM for 30 min, washed, added to HepG2 cells; 24 hours
Method: (§2) Twenty four hours later the number of adherent cells was determined in 10 fields per coverslip, in triplicates. […] Control sporozoites were treated with equivalent volume of DMSO. After 30 min of incubation, sporozoites were washed and added to a monolayer of HepG2 cells seeded 24 hours before. Infection was assessed 24 hours later by determining the number of EEFs in each well.

[5] = tested on: P. berghei ANKA-infected red blood cells (iRBC); assay: Blood stage infection of mice with P. berghei ANKA iRBC; assay type: in vivo; conditions: 1000 ppm genistein-supplemented diet; 1×10^6 iRBC i.p.
Method: Peripheral blood parasitemia and ECM symptoms were determined as described above.

Huh7 cells = assay: Cell death of Huh7 cells, propidium iodide flow cytometry; assay type: cell-based, human; conditions: 24 hours
P. yoelii sporozoites = assay: Mouse liver infection by P. yoelii sporozoites, 18S rRNA qRT-PCR; assay type: in vivo; conditions: single i.p. dose 200 mg/kg immediately prior to i.v. sporozoites; 40 hours
Method: (§3) C57BL/6 mice were bred and housed in the pathogen-free facilities of the Instituto de Gulbenkian de Ciência following all the EU regulations. The mice were then moved to the Instituto de Medicina Molecular Animal House were all the experiments were performed. All protocols were approved by the IMM Animal Care Committee. […] All mice were infected with 1×10^4 P. berghei ANKA sporozoites between the ages of 7 and 9 weeks old and liver infection was determined 40 hours later. In a parallel set of experiments, sporozoite infection was allowed to proceed to blood stage, to assess the impact of genistein in disease progression.
Forty hours post-sporozoite injection, livers were dissected and homogenized, and total RNA was extracted with an RNeasy Mini kit Quiagen, according to the manufacturer's recommendation. cDNA was obtained by reverse transcription using the First-strand cDNA synthesis kit (Roche) following the manufacturer's instructions. Quantitative RT-PCR reactions were performed for quantification of parasite load, using an ABI PRISM 7000, Applied Biosystem, and specific primers for Plasmodium berghei 18 S rRNA (5′-[…]-3′ and 5′-[…]-3′); or specific primers for P. yoelii 18 S rRNA (5′ –[…]-3′ and 5′-[…]-3′) were used for quantification of parasite load in the livers of mice 40 hours after sporozoite challenge. […]

[6] = tested on: P. berghei ANKA sporozoites; assay: In vitro infection of Huh7 cells by P. berghei ANKA sporozoites, EEF counting; assay type: cell-based
Method: (§4) HepG2, and Hepa1-6 cells (human and mouse hepatoma cell lines, respectively) were maintained in DMEM 10% FCS, 1% Penicillin/Streptomycin and 1 mM glutamine. HepG2 or Hepa1-6 cells (2×10^5) were seeded in 24-well plates and allowed to adhere for 24 hours before infection. Huh7 cells (human hepatoma cell line) were maintained in RPMI 10% FCS, 1% Penicillin/Streptomycin and 1 mM glutamine. Huh7 cells (1,75×10^5) were seeded in 24-well plates and allowed to adhere for 24 hours before infection. Green fluorescent protein (GFP)-expressing P. berghei ANKA sporozoites were obtained from the dissection of infected Anopheles stephensi mosquito salivary glands.
(§5) P. berghei ANKA sporozoites (4×10^4/well) were added to monolayers of Hepa1-6 or HepG2 cells in 24-well plates. […] As control, an equivalent volume of DMSO (dimethylsulphoxide) was added. […] In all experiments, genistein was left in the cultures since the time of addition until the cells were fixed for quantification of infection. Infection was quantified by counting the total number of EEFs per coverslip using fluorescence microscopy (magnification 400×). […] The level of infection was measured as described above, 24 hours post-infection with sporozoites. Quantification of the area of 100 individual EEFs of each group was performed using ImageJ 1.36b software. The results are expressed as areas in μm^2.

[7] = tested on: P. berghei ANKA sporozoites; assay: In vitro infection of Hepa1-6 cells by P. berghei ANKA sporozoites, EEF counting; assay type: cell-based
Method: as §4, §5

[8] = Genistein quantification in mouse sera, HPLC/MS; assay type: in vivo, C57BL/6 mice; conditions: for Genistein Concentration (μM): mouse sera, individual mice
Method: C57BL/6 mice were bred and housed in the pathogen-free facilities of the Instituto de Gulbenkian de Ciência following all the EU regulations. The mice were then moved to the Instituto de Medicina Molecular Animal House were all the experiments were performed. All protocols were approved by the IMM Animal Care Committee. […] All mice were infected with 1×10^4 P. berghei ANKA sporozoites between the ages of 7 and 9 weeks old and liver infection was determined 40 hours later.
“Free” analytes_aglycones, were extracted from the plasma/serum sample with ethyl acetate. The organic phase was evaporated and the dried residue was reconstituted in the mobile phase. For determination of the “total” isoflavones the glucuronide- and sulphate-conjugates were cleaved by enzymatic hydrolysis prior to ethyl acetate extraction. Chromatographic separation was performed by HPLC/MS on a C18-column in the gradient mode. Mass spectrometric detection (Agilent LC/MSD VL single-quadrupole-mass spectrometer equipped with elektrospray-ion source) was carried out with negative electrospray ionisation in the SIM-mode. Specifically, 200 μl of plasma were transferred into a 2 mL Eppendorf tube and 100 μl of enzyme solution were added. For enzymatic cleavage of the glucuronide- and sulphate-conjugates the samples were incubated at 38°C for 3 h, followed by addition of 30 μl internal standard solution. For extraction, 1200 μl ethyl acetate was added to the sample, shaken for 5 min at 300 rpm and centrifuged for 10 min at 10000 rpm and 10°C. 1000 μl of the supernatant was transferred into a 2 ml Eppendorf tube and evaporated at 30–35°C to dryness with a Vortex-Evaporator or Speed Vac. The dried residue was reconstituted in 150 μl mobile phase, briefly vortexed, and transferred into an HPLC vial. Forty to 75 μl were injected onto the analytical column and analyzed by HPLC-MS [35]. Data acquisition of extracted ion chromatograms, integration and quantification was performed with the Chemstation Software (Version 9.03 or higher) from Agilent Technologies.

HepG2 cells = assay: Viability of genistein-treated HepG2 cells, number of adherent cells; assay type: cell-based, human; conditions: 25 μM or 250 μM, 24 hours
Method: as §2

[9] = tested on: P. berghei ANKA sporozoites; assay: Blood parasitemia, survival and experimental cerebral malaria after sporozoite infection of mice; assay type: in vivo; conditions: 1000 ppm genistein-supplemented diet
Method: as §3
After sporozoite inoculation, peripheral blood parasitemias were followed daily by counting parasites in Giemsa stained thin blood films. To accurately quantify parasitemia in the first 96 hours post-infection, 50 to 100 microscope fields were examined in each blood film. At later time points, when the levels of parasitemia were higher, 20 microscope fields were counted per mouse. Mice were checked daily for development of ECM symptoms, which include ataxia, paralysis, deviation of the head and convulsions, coma and death.

[10] = tested on: P. berghei ANKA sporozoites; assay: In vitro infection of HepG2 cells by P. berghei ANKA sporozoites, EEF counting; assay type: cell-based; conditions: 25 μM
Method: as §4
P. berghei ANKA sporozoites (4×10^4/well) were added to monolayers of Hepa1-6 or HepG2 cells in 24-well plates. […] As control, an equivalent volume of DMSO (dimethylsulphoxide) was added. After 24 hours cells were fixed and stained with mouse anti-EEF (exo-erythrocytic forms of the parasite) antibody (2E6), followed by an anti-mouse secondary antibody. In all experiments, genistein was left in the cultures since the time of addition until the cells were fixed for quantification of infection. Infection was quantified by counting the total number of EEFs per coverslip using fluorescence microscopy (magnification 400×). […] The level of infection was measured as described above, 24 hours post-infection with sporozoites. Quantification of the area of 100 individual EEFs of each group was performed using ImageJ 1.36b software. The results are expressed as areas in μm^2.

[11] = tested on: P. berghei ANKA sporozoites; assay: Mouse liver infection by P. berghei ANKA sporozoites, 18S rRNA qRT-PCR; assay type: in vivo
Method: as §3
Forty hours post-sporozoite injection, livers were dissected and homogenized, and total RNA was extracted with an RNeasy Mini kit Quiagen, according to the manufacturer's recommendation. cDNA was obtained by reverse transcription using the First-strand cDNA synthesis kit (Roche) following the manufacturer's instructions. Quantitative RT-PCR reactions were performed for quantification of parasite load, using an ABI PRISM 7000, Applied Biosystem, and specific primers for Plasmodium berghei 18 S rRNA (5′-[…]-3′ and 5′-[…]-3′); or specific primers for P. yoelii 18 S rRNA (5′ –[…]-3′ and 5′-[…]-3′) were used for quantification of parasite load in the livers of mice 40 hours after sporozoite challenge. The amplification program consisted of incubation at 50°C for 2 min, 95°C for 10 min, followed by 50 cycles at 95°C for 15 s and 60°C for 1 min. For external standardization, plasmids encoding cDNA fragments cloned into TOPO TA, Invitrogen; corresponding to the amplified regions of the corresponding genes, were utilized. Copy numbers were calculated comparing the cycle numbers of the log-linear phase of the samples with the cycle numbers of the external standards.

For `O=c1c(-c2ccc(O)cc2)coc2cc(O)cc(O)c12` [genistein], the “sporozoite-induced Met phosphorylation” value [1] was “inhibited by genistein”, the pIC50 (P. yoelii) was about 4.52 and the “increase in GFP intensity of infected cells (parasite development)” value ([2]; 6, 30 and 44 hours after sporozoite addition) was “significantly less pronounced”. The “invasion rate (GFP positive cells)” value ([2]; 2 hours post-infection) was “equally invaded”, the pIC50 (P. berghei ANKA; Huh-7, 24 h, read-out: IC50 (inhibition of infection), P. berghei ANKA infection of Huh7 cells) was about 4.70 and the “infection of primary mouse hepatocytes” value (P. berghei sporozoites) was “reduced the infection of these cells”. The adverse effects [3] was “No obvious adverse effects”, the “infection level (EEF number) with pre-treated sporozoites” value [4] was “no significant difference” and the “development of parasitemia after iRBC infection” value [5] was “no significant difference”. The “proportion of cell death” value (Huh7 cells) was “constant proportion of cell death”, the “parasite load in the liver” value (P. yoelii sporozoites) was “reduced infection” and the “infection after pre-treatment of cells” value ([6]; Huh7 cells pre-treated 2 h with 25 μM, washed before sporozoite addition, 24 hours) was “small but significant reduction of infection”. For the same compound, the reduction in infection ([6]; Huh7 cells, 25 μM, 24 hours after infection) was 68±4%, the “EEF size (area)” value ([7]; Hepa1-6, 25 μM, 24 hours after infection) was “significantly smaller” and the “Hepa1-6 cell infection (total number of EEFs)” value ([7]; increasing doses of genistein, 24 hours after sporozoite addition) was “significantly inhibits Hepa1-6 cell infection in a dose-dependent manner”. The “genistein amounts in sera” value ([8]; genistein supplemented diet) was at most 5 µM, the “Genistein Concentration (μM)” value ([8]; single oral dose 200 mg/kg, 2 h after gavage, 200 mg/kg) was 7,07 μM and 15,00 μM and 13,25 μM and 7,23 μM and the “Genistein Concentration (μM)” value ([8]; single oral dose 200 mg/kg, 6 h after gavage, 200 mg/kg) was 0,57 μM and 0,32 μM and 0,45 μM and 2,29 μM. For the same compound, the “Genistein Concentration (μM)” value ([8]; supplemented diet 1000 ppm, 7–9 weeks old mice) was 3,32 μM and 1,99 μM and 1,35 μM and 2,26 μM and 3,02 μM and 1,34 μM and 3,14 μM and 3,75 μM and 0,20 μM and 1,11 μM and 0,84 μM and 1,37 μM and 0,68 μM and 1,16 μM and 1,42 μM, the “number of adherent cells” value (HepG2 cells) was “constant number of cells” and the survival ([9]; 25 days after infection) was 56%. The “appearance of blood parasitemia” value ([9]; i.v. sporozoites) was “significantly reduced”, the “mice protected from developing cerebral malaria” value ([9]; i.v. sporozoites) was “Fifty-six” and the “infection, drug removed at different times after infection” value ([10]; HepG2, added at sporozoite addition and washed at various time-points) was “reduced infection when it was present during the first 4 hours of infection”. The “infection, drug added at different times after sporozoite addition” value ([10]; HepG2, added prior to infection or up to 6 hours after sporozoite addition) was “significantly reduced infection to approximately the same extent”, the reduction in infection ([10]; HepG2 cells, 24 hours after infection) was 74±8% and the “relation of degree of liver infection to genistein levels in sera” value ([11]; 1000 ppm genistein-supplemented diet) was “inversely correlated”. For the same compound, the liver parasite load ([11]; 1000 ppm genistein-supplemented diet, 40 hours after sporozoite injection) was “significantly reduced”, the “parasite load in the liver” value ([11]; single i.p. dose 200 mg/kg immediately prior to i.v. sporozoites, 40 hours) was “reduced infection” and the “reduction of liver infection” value ([11]; single oral dose 200 mg/kg 6 hours prior to sporozoite inoculation, 40 hours after infection) was 64%.

For `COc1cc(NC(C)CCCN)c2ncccc2c1` (stereo not shown) [primaquine], the pIC50 (P. berghei ANKA; Huh-7, P. berghei ANKA infection of Huh7 cells, 24 hours, read-out: IC50 (inhibition of infection)) was 4.89.
